According to ChEMBL document CHEMBL1201862, “PubChem BioAssay data set” (2004):
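Method: 48-hour compound exposure of cells in 96-well plates, five concentrations, linear interpolation of endpoints. GI50: concentration for 50% inhibition of growth.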 The source made the active and inactive calls. Rule as the data show it: active = GI50 up to about 1.1 µM and inactive = higher.

Columns and labels:
Assay in all cases: NCI tumour cell line growth inhibition, 48 h
SK-OV-3 = system: SK-OV-3
UACC-62 = system: UACC-62
OVCAR-5 = system: OVCAR-5
M14 = system: M14
OVCAR-8 = system: OVCAR-8
K562 = system: K562
HOP-62 = system: HOP-62
CCRF-CEM = system: CCRF-CEM
SK-MEL-2 = system: SK-MEL-2
M19-MEL = system: M19-MEL
SK-MEL-28 = system: SK-MEL-28
SF-268 = system: SF-268
RPMI-8226 = system: RPMI-8226
SNB-78 = system: SNB-78
ACHN = system: ACHN
LOX IMVI = system: LOX IMVI
HCT-15 = system: HCT-15
TK-10 = system: TK-10
SR = system: SR
MOLT-4 = system: MOLT-4
COLO 205 = system: COLO 205
SW-620 = system: SW-620
SNB-19 = system: SNB-19
A549 = system: A549
HT-29 = system: HT-29
786-0 = system: 786-0
RXF 393 = system: RXF 393
HCC 2998 = system: HCC 2998
KM-20L2 = system: KM-20L2
SF-295 = system: SF-295
LXFL 529 = system: LXFL 529
OVCAR-3 = system: OVCAR-3
NCI-H226 = system: NCI-H226
DMS-273 = system: DMS-273
EKVX = system: EKVX
DMS-114 = system: DMS-114
NCI-H23 = system: NCI-H23
NCI-H522 = system: NCI-H522
DLD-1 = system: DLD-1
HL-60 = system: HL-60
KM12 = system: KM12
XF498 = system: XF498
SN12C = system: SN12C
HCT-116 = system: HCT-116
SF-539 = system: SF-539
IGROV-1 = system: IGROV-1
SNB-75 = system: SNB-75
OVCAR-4 = system: OVCAR-4
Malme-3M = system: Malme-3M
NCI-H460 = system: NCI-H460
HOP-92 = system: HOP-92
SK-MEL-5 = system: SK-MEL-5
UO-31 = system: UO-31
A498 = system: A498
U-251 = system: U-251
CAKI-1 = system: CAKI-1

`CC(=O)OC1CC2C(C)(C)OC(=O)CC(OC(C)=O)[C@]2(C)C2CCC3(C)C(=CCC3[C@H]3COC(=O)C3)[C@]12C` (stereo partly specified) was tested, and the GI50 (SK-OV-3) was > 100 µM (inactive), the GI50 (UACC-62) was 97.7 µM (inactive) and the GI50 (OVCAR-5) was > 100 µM (inactive). For the same compound, the GI50 (M14) was 32.7 µM (inactive), the GI50 (OVCAR-8) was > 100 µM (inactive) and the GI50 (K562) was 43.9 µM (inactive). For the same compound, the GI50 (HOP-62) was > 100 µM (inactive), the GI50 (CCRF-CEM) was 23.5 µM (inactive) and the GI50 (SK-MEL-2) was 72.3 µM (inactive). For the same compound, the GI50 (M19-MEL) was 80.2 µM (inactive), the GI50 (SK-MEL-28) was 42.6 µM (inactive) and the GI50 (SF-268) was > 100 µM (inactive). For the same compound, the GI50 (RPMI-8226) was 47.1 µM (inactive), the GI50 (SNB-78) was > 100 µM (inactive) and the GI50 (ACHN) was > 100 µM (inactive). For the same compound, the GI50 (LOX IMVI) was > 100 µM (inactive), the GI50 (HCT-15) was > 100 µM and the GI50 (TK-10) was > 100 µM (inactive). The GI50 (SR) was 24 µM (inactive), the GI50 (MOLT-4) was 24.5 µM (inactive) and the GI50 (COLO 205) was > 100 µM (inactive). For the same compound, the GI50 (SW-620) was > 100 µM (inactive), the GI50 (SNB-19) was > 100 µM (inactive) and the GI50 (A549) was 55.6 µM (inactive). For the same compound, the GI50 (HT-29) was 60.5 µM (inactive), the GI50 (786-0) was > 100 µM (inactive) and the GI50 (RXF 393) was > 100 µM (inactive). For the same compound, the GI50 (HCC 2998) was > 100 µM (inactive), the GI50 (KM-20L2) was > 100 µM (inactive) and the GI50 (SF-295) was 41.5 µM (inactive). The GI50 (LXFL 529) was 51.8 µM (inactive), the GI50 (OVCAR-3) was 94 µM (inactive) and the GI50 (NCI-H226) was > 100 µM (inactive). For the same compound, the GI50 (DMS-273) was 88.9 µM (inactive), the GI50 (EKVX) was 65.5 µM (inactive) and the GI50 (DMS-114) was 70.1 µM (inactive). For the same compound, the GI50 (NCI-H23) was > 100 µM (inactive), the GI50 (NCI-H522) was 83.4 µM (inactive) and the GI50 (DLD-1) was 71.6 µM (inactive). For the same compound, the GI50 (HL-60) was 50.1 µM (inactive), the GI50 (KM12) was > 100 µM (inactive) and the GI50 (XF498) was > 100 µM (inactive). For the same compound, the GI50 (SN12C) was > 100 µM (inactive), the GI50 (HCT-116) was 61.5 µM (inactive) and the GI50 (SF-539) was > 100 µM (inactive). For the same compound, the GI50 (IGROV-1) was > 100 µM (inactive), the GI50 (SNB-75) was 46.6 µM (inactive) and the GI50 (OVCAR-4) was > 100 µM (inactive). For the same compound, the GI50 (Malme-3M) was > 100 µM (inactive), the GI50 (NCI-H460) was > 100 µM (inactive) and the GI50 (HOP-92) was 26.1 µM (inactive). For the same compound, the GI50 (SK-MEL-5) was > 100 µM (inactive), the GI50 (UO-31) was > 100 µM (inactive) and the GI50 (A498) was 96.4 µM (inactive). For the same compound, the GI50 (U-251) was > 100 µM (inactive) and the GI50 (CAKI-1) was > 100 µM (inactive).
